Experimental data from US5534508A, “Cephem compounds and antimicrobial agents” (Katayama Seiyakusyo Co., Ltd., priority 1993, dated 1996).
Converted amounts (≈) assume the structure as drawn.

Legend:
Type in all cases: cell-based
[1] = system: E. coli CSH2(RK1); test: MIC against standard strains (Table 1), E. coli CSH2(RK1); settings: Escherichia coli, read-out: MIC (minimum growth inhibitory concentration)
Experimental: (§1) The minimum growth inhibitory concentration (MIC, μg/ml) of the compounds for each of the 25 standard laboratory strains (standard strains) shown in Table 1 was determined in accordance with the standard method of the Japan Chemotherapical Society (Chemotherapy, 29, 76-79 (1981) under "Re-revision of the measuring methods of minimum growth inhibitory concentration (MIC)").
(§2) That is, by using each test strain cultured overnight at 37° C. in a Muller-Hinton broth, there was prepared a bacterial solution with a cell density of 1×10^6 CFU/ml in the same broth. The bacterial solution was inoculated into the Muller-Hinton agar media each containing respectively one test agent (i.e., compound) and, after overnight incubation at 37° C., the minimum concentration that inhibited growth of the bacteria was determined and expressed as MIC.
(§3) Staphylococcus aureus 167 and Staphylococcus aureus 195 used in the test were MRSA. CTM (cefotiam) and FMOX (flomoxef) were used as the control agents.

[2] = system: clinically isolated MRSA; test: Antibacterial potency against clinically isolated MRSA (47 strains); settings: Staphylococcus aureus; for MIC50: concentration inhibiting growth of 50% of 47 clinically isolated MRSA strains; for MIC90: concentration inhibiting growth of 90% of 47 clinically isolated MRSA strains
Experimental: A test on the antibacterial potency against clinically isolated MRSA was conducted in the following way.
That is, using 47 strains of clinically isolated MRSA, MIC was determined for each of the test strains in accordance with the standard method of the Japan Chemotherapical Society as in Test Example 1, and the minimum growth inhibitory concentration which inhibited growth of 50% of the strains tested was expressed as MIC50 (μg/ml), and the minimum growth inhibitory concentration which inhibited growth of 90% of the strains tested was expressed as MIC90 (μg/ml).
In this test, FMOX was used as the control agent.

[3] = system: B. subtilis ATCC 6633; test: MIC against standard strains (Table 1), B. subtilis ATCC 6633; settings: Bacillus subtilis, ATCC6633, Muller-Hinton agar, overnight 37° C., read-out: MIC (minimum growth inhibitory concentration)
Experimental: as §1, §2, §3

[4] = system: C. freundii ATCC 8090; test: MIC against standard strains (Table 1), C. freundii ATCC 8090; settings: Citrobacter freundii, ATCC8090, Muller-Hinton agar, overnight 37° C., read-out: MIC (minimum growth inhibitory concentration)
Experimental: as §1, §2, §3

[5] = system: S. aureus 195; test: MIC against standard strains (Table 1), S. aureus 195 (MRSA); settings: Staphylococcus aureus, Muller-Hinton agar, overnight 37° C., read-out: MIC (minimum growth inhibitory concentration)
Experimental: as §1, §2, §3

[6] = system: S. aureus Smith; test: MIC against standard strains (Table 1), S. aureus Smith; settings: Staphylococcus aureus, Muller-Hinton agar, overnight 37° C., read-out: MIC (minimum growth inhibitory concentration)
Experimental: as §1, §2, §3

[7] = system: P. aeruginosa AKR17; test: MIC against standard strains (Table 1), P. aeruginosa AKR17; settings: Pseudomonas aeruginosa, Muller-Hinton agar, overnight 37° C., read-out: MIC (minimum growth inhibitory concentration)
Experimental: as §1, §2, §3

[8] = system: E. cloacae Nek39; test: MIC against standard strains (Table 1), E. cloacae Nek39; settings: Enterobacter cloacae, Muller-Hinton agar, overnight 37° C., read-out: MIC (minimum growth inhibitory concentration)
Experimental: as §1, §2, §3

[9] = system: P. vulugaris OX-19; test: MIC against standard strains (Table 1), P. vulugaris OX-19; settings: Muller-Hinton agar, overnight 37° C., read-out: MIC (minimum growth inhibitory concentration)
Experimental: as §1, §2, §3

[10] = system: M. morganii IFO 3848; test: MIC against standard strains (Table 1), M. morganii IFO 3848; settings: Morganella morganii, IFO3848, Muller-Hinton agar, overnight 37° C., read-out: MIC (minimum growth inhibitory concentration)
Experimental: as §1, §2, §3

[11] = system: A. faecalis ATCC 3750; test: MIC against standard strains (Table 1), A. faecalis ATCC 3750; settings: Alcaligenes faecalis, ATCC3750, Muller-Hinton agar, overnight 37° C., read-out: MIC (minimum growth inhibitory concentration)
Experimental: as §1, §2, §3

[12] = system: K. pneuminiae No. 42; test: MIC against standard strains (Table 1), K. pneuminiae No. 42; settings: Muller-Hinton agar, overnight 37° C., read-out: MIC (minimum growth inhibitory concentration)
Experimental: as §1, §2, §3

[13] = system: P. aeruginosa NCTC 10490; test: MIC against standard strains (Table 1), P. aeruginosa NCTC 10490; settings: Pseudomonas aeruginosa, NCTC10490, Muller-Hinton agar, overnight 37° C., read-out: MIC (minimum growth inhibitory concentration)
Experimental: as §1, §2, §3

[14] = system: S. marcescens No. 16-2; test: MIC against standard strains (Table 1), S. marcescens No. 16-2; settings: Serratia marcescens, NO.162, Muller-Hinton agar, overnight 37° C., read-out: MIC (minimum growth inhibitory concentration)
Experimental: as §1, §2, §3

[15] = system: E. cloacae ATCC 13407; test: MIC against standard strains (Table 1), E. cloacae ATCC 13407; settings: Enterobacter cloacae, ATCC13407, Muller-Hinton agar, overnight 37° C., read-out: MIC (minimum growth inhibitory concentration)
Experimental: as §1, §2, §3

[16] = system: K. pneuminiae IFO 3317; test: MIC against standard strains (Table 1), K. pneuminiae IFO 3317; settings: Muller-Hinton agar, overnight 37° C., read-out: MIC (minimum growth inhibitory concentration)
Experimental: as §1, §2, §3

[17] = system: A. calcoaceticos T59; test: MIC against standard strains (Table 1), A. calcoaceticos T59; settings: Muller-Hinton agar, overnight 37° C., read-out: MIC (minimum growth inhibitory concentration)
Experimental: as §1, §2, §3

[18] = system: S. aureus 167; test: MIC against standard strains (Table 1), S. aureus 167 (MRSA); settings: Staphylococcus aureus, Muller-Hinton agar, overnight 37° C., read-out: MIC (minimum growth inhibitory concentration)
Experimental: as §1, §2, §3

[19] = system: P. cepacia CN 9113; test: MIC against standard strains (Table 1), P. cepacia CN 9113; settings: Burkholderia cepacia, CN9113, Muller-Hinton agar, overnight 37° C., read-out: MIC (minimum growth inhibitory concentration)
Experimental: as §1, §2, §3

[20] = system: E. coli CSH2(RE45); test: MIC against standard strains (Table 1), E. coli CSH2(RE45); settings: Escherichia coli, read-out: MIC (minimum growth inhibitory concentration)
Experimental: as §1, §2, §3

[21] = system: M. luteus ATCC 9341; test: MIC against standard strains (Table 1), M. luteus ATCC 9341; settings: Micrococcus luteus, ATCC9341, Muller-Hinton agar, overnight 37° C., read-out: MIC (minimum growth inhibitory concentration)
Experimental: as §1, §2, §3

[22] = system: S. epidemidis IAM 1296; test: MIC against standard strains (Table 1), S. epidemidis IAM 1296; settings: Muller-Hinton agar, overnight 37° C., read-out: MIC (minimum growth inhibitory concentration)
Experimental: as §1, §2, §3

[23] = system: E. coli JC-2; test: MIC against standard strains (Table 1), E. coli JC-2; settings: Escherichia coli, JC2, Muller-Hinton agar, overnight 37° C., read-out: MIC (minimum growth inhibitory concentration)
Experimental: as §1, §2, §3

[24] = system: S. aureus 209p JC-1; test: MIC against standard strains (Table 1), S. aureus 209p JC-1; settings: Staphylococcus aureus, Muller-Hinton agar, overnight 37° C., read-out: MIC (minimum growth inhibitory concentration)
Experimental: as §1, §2, §3

[25] = system: P. mirabilis IFO 3849; test: MIC against standard strains (Table 1), P. mirabilis IFO 3849; settings: Proteus mirabilis, IFO3849, Muller-Hinton agar, overnight 37° C., read-out: MIC (minimum growth inhibitory concentration)
Experimental: as §1, §2, §3

[26] = system: S. marcescens IAM 1184; test: MIC against standard strains (Table 1), S. marcescens IAM 1184; settings: Serratia marcescens, IAM1184, Muller-Hinton agar, overnight 37° C., read-out: MIC (minimum growth inhibitory concentration)
Experimental: as §1, §2, §3

## CO/N=C(\C(=O)N[C@@H]1C(=O)N2C(C(=O)[O-])=C(/C=C/C[n+]3cccc(NC(N)=O)c3)CS[C@H]12)c1csc(N)n1 [Compound 6, 7β-[2-(2-aminothiazol-4-yl)-2-syn-methoxyiminoacetamido]-3-[(E)-3-(3-ureidopyridinio]-1-propenyl]-3-cephem-4-carboxylate]
[1]
  MIC: 0.025 µg/mL (≈ 0.0448 µM)
[2]
  MIC50: 13.8 µg/mL (≈ 24.7 µM)
  MIC90: 67 µg/mL (≈ 120 µM)
[3]
  MIC: 0.2 µg/mL (≈ 0.358 µM)
[4]
  MIC: 0.025 µg/mL (≈ 0.0448 µM)
[5]
  MIC: 12.5 µg/mL (≈ 22.4 µM)
[6]
  MIC: 0.39 µg/mL (≈ 0.698 µM)
[7]
  MIC: > 100 µg/mL
[8]
  MIC: 3.13 µg/mL (≈ 5.6 µM)
[9]
  MIC: 0.025 µg/mL (≈ 0.0448 µM)
[10]
  MIC: 0.025 µg/mL (≈ 0.0448 µM)
[11]
  MIC: 0.39 µg/mL (≈ 0.698 µM)
[12]
  MIC: 0.1 µg/mL (≈ 0.179 µM)
[13]
  MIC: 0.39 µg/mL (≈ 0.698 µM)
[14]
  MIC: 0.78 µg/mL (≈ 1.4 µM)
[15]
  MIC: 0.2 µg/mL (≈ 0.358 µM)
[16]
  MIC: 0.025 µg/mL (≈ 0.0448 µM)
[17]
  MIC: 6.25 µg/mL (≈ 11.2 µM)
[18]
  MIC: 50 µg/mL (≈ 89.5 µM)
[19]
  MIC: 50 µg/mL (≈ 89.5 µM)
[20]
  MIC: 0.1 µg/mL (≈ 0.179 µM)
[21]
  MIC: 0.025 µg/mL (≈ 0.0448 µM)
[22]
  MIC: 0.2 µg/mL (≈ 0.358 µM)
[23]
  MIC: 0.025 µg/mL (≈ 0.0448 µM)
[24]
  MIC: 0.39 µg/mL (≈ 0.698 µM)
[25]
  MIC: 0.025 µg/mL (≈ 0.0448 µM)
[26]
  MIC: 0.025 µg/mL (≈ 0.0448 µM)

## NC(=O)c1cc[n+](C/C=C/C2=C(C(=O)[O-])N3C(=O)[C@@H](NC(=O)/C(=N\O)c4csc(N)n4)[C@H]3SC2)cc1 [Compound 19, 7β-[2-(2-aminothiazol-4-yl)-2-syn-hydroxyiminoacetamido]-3-[(E)-3-(4-carbamoylpyridinio)-1-propenyl]-3-cephem-4-carboxylate]
[1]
  MIC: 0.2 µg/mL (≈ 0.378 µM)
[2]
  MIC50: 2.92 µg/mL (≈ 5.51 µM)
  MIC90: 17.4 µg/mL (≈ 32.8 µM)
[3]
  MIC: 0.2 µg/mL (≈ 0.378 µM)
[4]
  MIC: 0.05 µg/mL (≈ 0.0944 µM)
[5]
  MIC: 3.13 µg/mL (≈ 5.91 µM)
[6]
  MIC: 0.2 µg/mL (≈ 0.378 µM)
[7]
  MIC: > 100 µg/mL
[8]
  MIC: 12.5 µg/mL (≈ 23.6 µM)
[9]
  MIC: 0.1 µg/mL (≈ 0.189 µM)
[10]
  MIC: 0.05 µg/mL (≈ 0.0944 µM)
[11]
  MIC: 1.56 µg/mL (≈ 2.95 µM)
[12]
  MIC: 0.1 µg/mL (≈ 0.189 µM)
[13]
  MIC: 1.56 µg/mL (≈ 2.95 µM)
[14]
  MIC: 12.5 µg/mL (≈ 23.6 µM)
[15]
  MIC: 0.39 µg/mL (≈ 0.736 µM)
[16]
  MIC: 0.05 µg/mL (≈ 0.0944 µM)
[17]
  MIC: 3.13 µg/mL (≈ 5.91 µM)
[18]
  MIC: 100 µg/mL (≈ 189 µM)
[19]
  MIC: > 100 µg/mL
[20]
  MIC: 0.1 µg/mL (≈ 0.189 µM)
[21]
  MIC: 0.05 µg/mL (≈ 0.0944 µM)
[22]
  MIC: 0.05 µg/mL (≈ 0.0944 µM)
[23]
  MIC: 0.1 µg/mL (≈ 0.189 µM)
[24]
  MIC: 0.1 µg/mL (≈ 0.189 µM)
[25]
  MIC: 0.2 µg/mL (≈ 0.378 µM)
[26]
  MIC: 0.1 µg/mL (≈ 0.189 µM)

## Nc1nc(/C(=N/O)C(=O)N[C@@H]2C(=O)N3C(C(=O)[O-])=C(/C=C/C[n+]4cccc(-c5csc(N)n5)c4)CS[C@H]23)cs1 [Compound 12, 7β-[2-(2-aminothiazol-4-yl)-2-syn-hydroxyiminoacetamido]-3-[(E)-3-[3-(2-aminothiazol-4-yl)pyridinio]-1-propenyl]-3-cephem-4-carboxylate]
[1]
  MIC: 0.2 µg/mL (≈ 0.342 µM)
[3]
  MIC: 0.2 µg/mL (≈ 0.342 µM)
[4]
  MIC: 0.05 µg/mL (≈ 0.0855 µM)
[5]
  MIC: 1.56 µg/mL (≈ 2.67 µM)
[6]
  MIC: 0.1 µg/mL (≈ 0.171 µM)
[7]
  MIC: > 100 µg/mL
[8]
  MIC: 6.25 µg/mL (≈ 10.7 µM)
[9]
  MIC: 0.05 µg/mL (≈ 0.0855 µM)
[10]
  MIC: 0.025 µg/mL (≈ 0.0428 µM)
[11]
  MIC: 1.56 µg/mL (≈ 2.67 µM)
[12]
  MIC: 0.1 µg/mL (≈ 0.171 µM)
[13]
  MIC: 3.13 µg/mL (≈ 5.35 µM)
[14]
  MIC: 12.5 µg/mL (≈ 21.4 µM)
[15]
  MIC: 0.39 µg/mL (≈ 0.667 µM)
[16]
  MIC: 0.05 µg/mL (≈ 0.0855 µM)
[17]
  MIC: 12.5 µg/mL (≈ 21.4 µM)
[18]
  MIC: 25 µg/mL (≈ 42.8 µM)
[19]
  MIC: > 100 µg/mL
[20]
  MIC: 0.1 µg/mL (≈ 0.171 µM)
[21]
  MIC: 0.05 µg/mL (≈ 0.0855 µM)
[22]
  MIC: 0.05 µg/mL (≈ 0.0855 µM)
[23]
  MIC: 0.05 µg/mL (≈ 0.0855 µM)
[24]
  MIC: 0.1 µg/mL (≈ 0.171 µM)
[25]
  MIC: 0.1 µg/mL (≈ 0.171 µM)
[26]
  MIC: 0.1 µg/mL (≈ 0.171 µM)
